Source: patent US10202604B2, “Methods of using microRNA-141” (Stemirna Therapeutics Co., Ltd., priority 2016, dated 2019)

Assays:
[1] = tested on: PPC-1 cells; assay: In vivo tumor regeneration assay; design: species or system NOD/SCID mice; conditions: miR-141 over-expression in bulk cells; 100,000 cells per injection
Description: (§1) Average % of CD44^+ cells (as determined by flow analysis; n=3-5) is indicated for each cell type (UD, undetectable). […] Purified CD44^+ Du145 cells were transfected with NC or miR-141 oligos (30 nM, 48 h) and then plated for clonal (1D & 1E) and sphere (1F) assays. Bars represent mean±SD. *, P<0.05; **, P<0.01. […] Shown are tumor images, cell numbers injected (100,000 cells per injection for all models), site of injection (s.c, subcutaneously) and days (d) when tumors were harvested. Tumor weight and incidences with corresponding P values are also indicated. ns, not significant. […] Purified CD44^+ HPCa202 cells were infected with Lenti-ctl or Lenti-141 (MOI 10, 72 h) and plated for clonal assay (1K) or sphere assays in Matrigel (1L & 1M). For 1st generation (1°) sphere assays, 1,000 cells per well were plated in triplicate for each group in 12-well plate and results scored in 11 days. For 2nd generation (2°), the 1° spheres were harvested, digested with Collagenase and Trypsin into single cells, 1,000 cells/well were plated, and results scored in 10 days. Quantification of the colonies was plotted (1 L; **P<0.01).
(§2) Du145, LNCaP, PC3, PPC-1, VCaP cells were obtained from […] and cultured in RPMI-1640 (Life Technologies, Carlsbad, Calif.) plus 7% fetal bovine serum (FBS) with the exception of VCaP, which were cultured in Dulbecco's Modified Eagles Medium (DMEM, Life Technologies) supplemented with 15% fetal bovine serum. Human xenograft prostate tumors, LAPC9 [bone metastasis; positive for androgen receptor (AR) and prostate-specific antigen (PSA)], LAPC4 (lymph node metastasis; AR+ and PSA+), and Du145 ([…]; AR− and PSA−) were maintained in NOD/SCID mice. These cell and xenograft lines, which have been routinely utilized (13, 14, 18, 20, 21, 23, 25, 33) and authenticated by institutional CCSG Cell Line Characterization Core using short tandem repeat (STR) analysis and checked to be free of mycoplasma contamination using the Agilent (Santa Clara, Calif.) MycoSensor QPCR Assay Kit (cat.#302107). NOD/SCID mice were produced mostly from breeding colonies with occasional purchases from the Jackson Laboratories and maintained in standard conditions according to the Institutional Guidelines. All animal experiments were approved by Institutional Animal Care and Use Committee.
(§3) As the CD44^+ prostate cancer cells are prominently devoid of miR-141, its expression in CD44^+ prostate cancer cells was restored and then cancer stem cell assays including stringent clonal (holoclone) and single cell-derived sphere-formation assays (13, 14, 23, 25, 33) were performed. […]

[2] = tested on: CD44+ LAPC9 cells; assay: In vivo tumor regeneration assay; design: species or system NOD/SCID mice; conditions: enforced miR-141 expression; 100,000 cells per injection
Description: as §1, §2, §3

[3] = tested on: bulk Du145 cells; assay: In vivo tumor regeneration assay; design: species or system NOD/SCID mice; conditions: miR-141 over-expression in bulk cells; 100,000 cells per injection
Description: as §1, §2, §3

[4] = tested on: CD44+ Du145 cells; assay: In vivo tumor regeneration assay; design: species or system NOD/SCID mice; conditions: enforced miR-141 expression; 100,000 cells per injection
Description: as §1, §2, §3

[5] = tested on: PPC-1 bulk cells or CD44+ DU145 cells; assay: EdU incorporation flow cytometry; type: cell-based, human; conditions: miR-141-overexpressing cells; 30 nM oligos 48 h, 10 μM EdU 2.5 h
Description: EdU (5-ethynyl-2′-deoxyuridine) is a nucleoside analog to thymidine and incorporated into DNA during active DNA synthesis. EdU incorporation assays were performed using Click-iT EdU Flow Cytometer Assays kit (C10418, Invitrogen) per manufacturer's instructions. Briefly, PPC-1 bulk cells or CD44^+ DU145 cells transfected with negative control or miR-141 oligos (30 nM) for 48 h were pulsed with 10 μM EdU for 2.5 h and harvested. After fixation and permeabilization, cells were processed for EdU immunostaining and also labeled with Pacific Blue azide (1:200) and finally analyzed on a flow cytometer.

[6] = tested on: PPC-1 cells; assay: Clonal and sphere formation assays; type: cell-based, human
Description: For clonal assays, cultured prostate cancer cells or human prostate cancer cells freshly purified from patient primary tumors were plated at a clonal density (i.e., 100 cells/well) in a 6-well plate. The number of holoclones (33) was counted several days later. For Matrigel-based sphere formation assays, cells in medium were plated (generally 1,000 cells/well) in Matrigel at 1:1 ratio in a total of 100 μl in 96-well plates. Spheres were enumerated 1-2 weeks after plating. For floating sphere formation assays, cells were plated in serum-free epithelial basal medium (PrEBM) supplemented with B27 (Invitrogen), and 20 ng/ml EGF and bFGF in ultra-low attachment (ULA) plate. Floating spheres that arose in 1-2 weeks were counted. For all these experiments, a minimum of triplicate wells was run for each condition and repeat experiments were performed when necessary and feasible.

Substance: miR-141: miR-141 mirVana mimics (Life Technologies); microRNA-141 oligonucleotide may have SEQ ID NO: 1; in some experiments over-expressed by lentiviral vectors (UAACACUGUCUGGUAAAGAUGG; listed as RNA, further chemistry not given here) [miR-141 mirVana mimics (Life Technologies); in some experiments over-expressed by lentiviral vectors]
- tumor regeneration [1]: suppressed tumor regeneration
- tumor growth and/or tumor incidence [2]: significantly suppressed tumor growth and/or reduced tumor incidence
- tumor regeneration [3]: suppressed tumor regeneration
- tumor growth and/or tumor incidence [4]: significantly suppressed tumor growth and/or reduced tumor incidence
- EdU incorporation [5]: reduced
- clonal expansion [6]: inhibited
- sphere formation [6]: inhibited
